Drawing on ChEMBL document CHEMBL5385939, “Novel ether derivatives of 11-azaartemisinins with high order antimalarial activity against multidrug-resistant Plasmodium yoelii in Swiss mice” (2024), this text covers Activity for twelve molecules.

Assay [1] concerns Plasmodium yoelii. Put plainly: Antimalarial activity against multidrug resistant Plasmodium yoelii infected in swiss mouse assessed as reduction in parasitaemia at 24 mg/kg, po administered for 4 days. Set-up: scale not given: the % may be the effect or the level left. Conditions: time 4 day. Type of assay: functional.
In assay [2] the test system is Plasmodium yoelii. Put plainly: Antimalarial activity against multidrug resistant Plasmodium yoelii infected in swiss mouse assessed as reduction in parasitaemia at 12 mg/kg, po administered for 4 days. Type of assay: functional. More on the design: scale not given: the % may be the effect or the level left. Conditions: time 4 day.
The subject of assay [3] is Plasmodium yoelii. In words: Antimalarial activity against multidrug resistant Plasmodium yoelii infected in swiss mouse assessed as reduction in parasitaemia at 24 mg/kg, IM administered for 4 days. The note with it: time 4 day. Set-up: scale not given: the % may be the effect or the level left. The assay is classed as functional.
For assay [4], the system named is Plasmodium yoelii. In words: Antimalarial activity against multidrug resistant Plasmodium yoelii infected in swiss mouse assessed as increase in survival time at 12 mg/kg, po administered for 4 days and measured on day 28. The note with it: time 28.0 day. Type of assay: functional, organism-based.
The test system of assay [5] is Plasmodium yoelii. In words: Antimalarial activity against multidrug resistant Plasmodium yoelii infected in swiss mouse assessed as increase in survival time at 24 mg/kg, IM administered for 4 days and measured on day 28. Type of assay: functional, organism-based. Conditions: time 28.0 day.
In assay [6] the test system is Plasmodium yoelii. Put plainly: Antimalarial activity against multidrug resistant Plasmodium yoelii infected in swiss mouse assessed as reduction in parasitaemia at 12 mg/kg, IM administered for 4 days. Type of assay: functional. Set-up: scale not given: the % may be the effect or the level left. The note with it: time 4 day.
Assay [7] deals with Plasmodium yoelii. Put plainly: Antimalarial activity against multidrug resistant Plasmodium yoelii infected in swiss mouse assessed as reduction in parasitaemia at 48 mg/kg, po administered for 4 days. The assay is classed as functional. More on the design: scale not given: the % may be the effect or the level left. Conditions: time 4 day.
The subject of assay [8] is Plasmodium yoelii. Put plainly: Antimalarial activity against multidrug resistant Plasmodium yoelii infected in swiss mouse assessed as reduction in parasitaemia at 48 mg/kg, IM administered for 4 days. Set-up: scale not given: the % may be the effect or the level left. Conditions: time 4 day. Type of assay: functional.
The test system of assay [9] is Plasmodium yoelii. Put plainly: Antimalarial activity against multidrug resistant Plasmodium yoelii infected in swiss mouse assessed as increase in survival time at 48 mg/kg, po administered for 4 days and measured on day 28. Conditions: time 28.0 day. The assay is classed as functional, organism-based.
In assay [10] the test system is Plasmodium yoelii. In words: Antimalarial activity against multidrug resistant Plasmodium yoelii infected in swiss mouse assessed as reduction in parasitaemia at 6 mg/kg, IM administered for 4 days. Type of assay: functional. The note with it: time 4 day. Set-up: scale not given: the % may be the effect or the level left.
Assay [11] concerns Plasmodium yoelii. In words: Antimalarial activity against multidrug resistant Plasmodium yoelii infected in swiss mouse assessed as increase in survival time at 24 mg/kg, po administered for 4 days and measured on day 28. Conditions: time 28.0 day. The assay is classed as functional, organism-based.
Assay [12] has as its system Plasmodium yoelii. Put plainly: Antimalarial activity against multidrug resistant Plasmodium yoelii infected in swiss mouse assessed as increase in survival time at 6 mg/kg, IM administered for 4 days and measured on day 28. Type of assay: functional, organism-based. Conditions: time 28.0 day.
Assay [13] concerns Plasmodium yoelii. Put plainly: Antimalarial activity against multidrug resistant Plasmodium yoelii infected in swiss mouse assessed as increase in survival time at 12 mg/kg, IM administered for 4 days and measured on day 28. Type of assay: functional, organism-based. The note with it: time 28.0 day.
In assay [14] the test system is Plasmodium yoelii. In words: Antimalarial activity against multidrug resistant Plasmodium yoelii infected in swiss mouse assessed as increase in survival time at 48 mg/kg, IM administered for 4 days and measured on day 28. The assay is classed as functional, organism-based. Conditions: time 28.0 day.
Assay [15] deals with Plasmodium yoelii. Put plainly: Antimalarial activity against multidrug resistant Plasmodium yoelii infected in swiss mouse assessed as reduction in parasitaemia at 3 mg/kg, IM administered for 4 days. Type of assay: functional. More on the design: scale not given: the % may be the effect or the level left. Conditions: time 4 day.
Assay [16] has as its system Plasmodium yoelii. Put plainly: Antimalarial activity against multidrug resistant Plasmodium yoelii infected in swiss mouse assessed as increase in survival time at 3 mg/kg, IM administered for 4 days and measured on day 28. The assay is classed as functional, organism-based. The note with it: time 28.0 day.

The source made the active and inactive calls. No cut-off for these calls is given here.

Take `C[C@@H]1CC[C@H]2[C@@H](C)C(=O)N(N)[C@@H]3O[C@@]4(C)CC[C@@H]1[C@@]23OO4`: the Activity in the assay on Plasmodium yoelii [1] stood at 100%; in the assay with Plasmodium yoelii [2], 99%; in the assay with Plasmodium yoelii [3], 100%. In addition, the outcome in the assay with Plasmodium yoelii [4] and in the assay with Plasmodium yoelii [5] was inactive.

For the molecule `C[C@@H]1CC[C@H]2[C@@H](C)C(=O)N(OCc3ccc([N+](=O)[O-])cc3)[C@@H]3O[C@@]4(C)CC[C@@H]1[C@@]23OO4`, the Activity in the assay with Plasmodium yoelii [1] and with Plasmodium yoelii [6] was 100% each time.

Consider `C[C@@H]1CC[C@H]2[C@@H](C)C(=O)N(CCO)[C@@H]3O[C@@]4(C)CC[C@@H]1[C@@]23OO4`, for which the values for the Activity in the assay on Plasmodium yoelii [1], with Plasmodium yoelii [7] and in the assay with Plasmodium yoelii [8] were 10%, 100% and 100%, respectively. In the assay on Plasmodium yoelii [9], the outcome was inactive.

On to `C[C@@H]1CC[C@H]2[C@@H](C)C(=O)N(CCOCc3ccc([N+](=O)[O-])cc3)[C@@H]3O[C@@]4(C)CC[C@@H]1[C@@]23OO4`, for which the Activity with Plasmodium yoelii [1] stood at 90%; in the assay with Plasmodium yoelii [6], 100%; in the assay with Plasmodium yoelii [10], 100%. Further, the result in the assay on Plasmodium yoelii [11] and in the assay on Plasmodium yoelii [12] was inactive. The result with Plasmodium yoelii [13] was Active.

Regarding `C[C@@H]1CC[C@H]2[C@@H](C)C(=O)N(CCOCc3ccccc3F)[C@@H]3O[C@@]4(C)CC[C@@H]1[C@@]23OO4`, the Activity in the assay with Plasmodium yoelii [1] and with Plasmodium yoelii [6] was 100% throughout.

Turning to `C[C@@H]1CC[C@H]2[C@@H](C)C(=O)N(CCOCc3ccccc3)[C@@H]3O[C@]4(C)CC[C@@H]1[C@@]23OO4`, the Activity with Plasmodium yoelii [1], in the assay on Plasmodium yoelii [6] and with Plasmodium yoelii [10] was 100% throughout. Also, the result with Plasmodium yoelii [12] was inactive. Besides, in the assay with Plasmodium yoelii [13], the result was Active.

On to `C[C@@H]1CC[C@H]2[C@@H](C)C(=O)N(NCc3ccc(Br)cc3)[C@@H]3O[C@@]4(C)CC[C@@H]1[C@@]23OO4`, for which the Activity in the assay on Plasmodium yoelii [1] and in the assay with Plasmodium yoelii [6] was 100% in each case.

`C[C@@H]1CC[C@H]2[C@@H](C)C(=O)N(O)[C@@H]3O[C@@]4(C)CC[C@@H]1[C@@]23OO4`: the Activity in the assay on Plasmodium yoelii [8] stood at 78%. Moreover, in the assay on Plasmodium yoelii [14], the outcome was inactive.

As to `C[C@@H]1CC[C@H]2[C@@H](C)C(=O)N(CCOCCCc3ccccc3)[C@@H]3O[C@]4(C)CC[C@@H]1[C@@]23OO4`, the Activity with Plasmodium yoelii [1] stood at 100%; in the assay with Plasmodium yoelii [6], 91%; in the assay on Plasmodium yoelii [10] it was 100%. The result in the assay with Plasmodium yoelii [13] was inactive.

Turning to `CCOC1O[C@@H]2O[C@@]3(C)CC[C@H]4[C@H](C)CC[C@@H]([C@H]1C)[C@@]24OO3` (stereo partly specified), the Activity in the assay with Plasmodium yoelii [1], in the assay with Plasmodium yoelii [6], in the assay with Plasmodium yoelii [10] and in the assay with Plasmodium yoelii [15] was 100% throughout. Moreover, the result in the assay with Plasmodium yoelii [9], in the assay with Plasmodium yoelii [12] and with Plasmodium yoelii [13] was Active. The outcome in the assay on Plasmodium yoelii [16] was inactive.

Regarding `C[C@@H]1CC[C@H]2[C@@H](C)C(=O)N(CCOCc3ccc(-c4ccccc4)cc3)[C@@H]3O[C@@]4(C)CC[C@@H]1[C@@]23OO4`, the Activity in the assay with Plasmodium yoelii [1] and in the assay with Plasmodium yoelii [6] was 100% throughout.

With `C[C@@H]1CC[C@H]2[C@@H](C)C(=O)N(OCCCc3ccccc3)[C@@H]3O[C@@]4(C)CC[C@@H]1[C@@]23OO4`, the Activity is 94% in the assay with Plasmodium yoelii [1] and 81% in the assay with Plasmodium yoelii [6]. In addition, the result in the assay on Plasmodium yoelii [11] and in the assay with Plasmodium yoelii [13] was inactive.
